Experimental data: PMC12537910, “Mosquito salivary sialokinin reduces monocyte activation and chikungunya virus-induced inflammation via neurokinin receptors” (Nature Communications, 2025)
Values joined by “and” are separate entries in the source; they are usually repeats but may differ in a detail not shown here. Identical values can stand only once. No end group written: not given here.

Columns and labels:
Type in all cases: cell-based
[1] = test system: PI3K; assay: Western blot P-PI3K/PI3K, human monocytes; conditions: for effect on sialokinin-stimulated phosphorylation of PI3K: antagonist pre-treatment
Description: (§1) DEG analysis was performed using edgeR, with multiple testing corrected via the Benjamini–Hochberg FDR method. […] Relative expression levels of P-PI3K/PI3K (n = 4 biological replicates) and P-Akt/Akt (n = 5 biological replicates) in monocytes at the 20-min time point were quantified with ImageJ. Levels are expressed as fold change relative to the non-treated controls. Bar graphs represent the mean ± standard deviation (SD). […] CD169 levels at 24 h post-treatment were measured by mean fluorescence intensity (MFI) and expressed as fold change relative to non-treated controls. Statistical comparisons were performed using paired two-tailed t-test or Wilcoxon signed-rank test, depending on data distribution.
(§2) Freshly purified human monocytes and six-day-differentiated MDMs ([…] cells/well) were incubated with or without sialokinin peptides in complete IMDM supplemented with 10% (vol/vol) HS (Sigma-Aldrich) and 1% (vol/vol) penicillin-streptomycin. Untreated monocytes and MDMs served as no-treatment controls.
(§3) To detect the phosphorylation status of PI3K/Akt kinases following sialokinin stimulation, cells were lysed with lysis buffer (Cell Signaling Technology) containing 2 mM PMSF. Lysates were separated by SDS-PAGE and subjected to western blotting using the following antibodies: P-PI3K (p85; Tyr458/p55; Tyr199, Cell Signaling Technology, 1:2000), PI3K (p85, Cell Signaling Technology, 1:2000), P-Akt (Ser473, Cell Signaling Technology, 1:2000), and Akt (Cell Signaling Technology, 1:2000). Signal intensities were visualized using a ChemiDoc imaging system (Bio-Rad) and quantified using Image Lab software version 6.0.1 (Bio-Rad).

[2] = test system: primary human monocytes; assay: CD169 expression after antagonist/inhibitor pre-treatment and sialokinin, monocytes; conditions: for CD 169 expression (MFI): monocytes 24 h, n = 5; for effect on sialokinin-mediated downregulation of CD169: pre-treatment 30 min before sialokinin, monocytes
Description: as §1, §2
Following harvesting, human monocytes and MDMs were specifically stained for the surface markers: CD45, CD14, CCR2, HLA-DR, CD16, CD11b, and CD169 (for monocytes); or CD45, CD14, HLA-DR, CD64, CD86, CD163, CD206, and CD169 (for MDMs). Dead cells were excluded by staining with the LIVE/DEAD Fixable Aqua Dead Cell Stain Kit (Life Technologies). The stained cells were subsequently incubated with FACS lysing solution (BD Biosciences) to lyse the red blood cells. Data were acquired on a Fortessa flow cytometer (BD Biosciences) with BD FACSDiva software version 9.0. Data analysis was performed using FlowJo version 9.3.2 (Tree Star, Inc.).

[3] = test system: Akt; assay: Western blot P-Akt/Akt, human monocytes; conditions: for effect on sialokinin-stimulated phosphorylation of Akt: antagonist pre-treatment
Description: as §1, §2, §3

[4] = target: T1, human NK1R (Homo sapiens, UniProt P25103)
T1 construct: expressed in transfected cells; host or cells: CHO (CHO-K1) cells, stably transfected; gift from Dr Shinya Oishi, Kyoto University
Source text: (§4) Supplementary Fig. 1: Molecular properties of sialokinin and its binding affinities to human neurokinin
(§5) (1 picture or pasted object on this page, not shown here)

[5] = target: T2, human NK2R (Homo sapiens, UniProt P21452); assay: Calcium flux assay, CHO cells expressing human NK2R; conditions: CHO-K1 cells expressing human NK2R; FLIPR; mean ± SEM of three independent experiments in triplicate; read-out: EC50 (peak calcium response)
T2 construct: expressed in transfected cells; host or cells: CHO (CHO-K1) cells, stably transfected; gift from Dr Shinya Oishi, Kyoto University
T2 sequence (P21452 1-398): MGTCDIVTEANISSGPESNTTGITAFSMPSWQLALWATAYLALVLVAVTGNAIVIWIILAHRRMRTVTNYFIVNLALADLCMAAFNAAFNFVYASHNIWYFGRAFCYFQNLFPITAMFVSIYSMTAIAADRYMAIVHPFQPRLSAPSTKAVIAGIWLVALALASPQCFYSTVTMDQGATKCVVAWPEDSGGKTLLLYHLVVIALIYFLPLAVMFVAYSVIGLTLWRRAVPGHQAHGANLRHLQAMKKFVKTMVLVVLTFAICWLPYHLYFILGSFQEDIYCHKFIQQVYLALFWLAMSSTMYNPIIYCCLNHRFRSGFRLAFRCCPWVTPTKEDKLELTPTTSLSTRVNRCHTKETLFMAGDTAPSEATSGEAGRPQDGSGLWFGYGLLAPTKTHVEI
Description: (§6) We assessed the binding affinity of sialokinin I, the predominant form in Aedes saliva, for human NK receptors using a calcium flux assay.
(§7) Calcium flux assay was carried out on CHO cells stably transfected with one of the human NK receptors (NK1R, NK2R, or NK3R). CHO cells were seeded at a density of 70,000 cells/well in 100 µL of Ham’s F-12 media in a black 96-well clear-bottom plate (Greiner). After overnight incubation, the media was replaced with Calcium 6 assay dye from Molecular Devices (1:1 dilution with buffer solution of 1× HBSS containing 20 mM HEPES) followed by incubation for 2 h at 37 °C for the absorption of dye into the cytoplasm. The intracellular calcium ion flux analysis was performed at different concentrations of sialokinin (tenfold dilution) using a FLIPR Tetra instrument (Molecular Devices). Fluorescence signal was recorded at excitation and emission wavelengths of 485 nm and 535 nm, respectively. The change in fluorescence is presented as the percent change with respect to baseline fluorescence. EC50 values were determined from dose-response curves plotted using Prism 5 (GraphPad).
as §4, §5

[6] = target: T1, human NK1R; assay: Calcium flux assay, CHO cells expressing human NK1R; conditions: CHO-K1 cells expressing human NK1R; FLIPR; mean ± SEM of three independent experiments in triplicate; read-out: EC50 (peak calcium response)
Description: as §6, §7, §4, §5

[7] = target: T3, human NK3R (Homo sapiens, UniProt P29371); assay: Calcium flux assay, CHO cells expressing human NK3R; conditions: CHO-K1 cells expressing human NK3R; FLIPR; mean ± SEM of three independent experiments in triplicate; read-out: EC50 (peak calcium response)
T3 construct: expressed in transfected cells; host or cells: CHO (CHO-K1) cells, stably transfected; gift from Dr Shinya Oishi, Kyoto University
T3 sequence (P29371 1-465): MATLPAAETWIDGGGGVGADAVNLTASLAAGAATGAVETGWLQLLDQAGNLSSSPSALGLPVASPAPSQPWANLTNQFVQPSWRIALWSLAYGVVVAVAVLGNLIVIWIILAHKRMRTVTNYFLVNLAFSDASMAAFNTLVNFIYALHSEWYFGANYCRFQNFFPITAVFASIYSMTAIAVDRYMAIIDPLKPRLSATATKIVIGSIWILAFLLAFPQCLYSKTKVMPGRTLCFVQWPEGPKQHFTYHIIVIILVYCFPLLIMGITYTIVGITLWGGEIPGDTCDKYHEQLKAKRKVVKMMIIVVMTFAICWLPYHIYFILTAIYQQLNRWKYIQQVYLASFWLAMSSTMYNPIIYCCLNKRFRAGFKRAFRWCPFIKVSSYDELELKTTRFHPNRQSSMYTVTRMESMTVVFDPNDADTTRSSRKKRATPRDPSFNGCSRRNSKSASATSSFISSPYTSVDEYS
Description: as §6, §7, §4, §5

[8] = GR-159897 + sialokinin, individual replicates

T1 sequence (P25103 whole entry): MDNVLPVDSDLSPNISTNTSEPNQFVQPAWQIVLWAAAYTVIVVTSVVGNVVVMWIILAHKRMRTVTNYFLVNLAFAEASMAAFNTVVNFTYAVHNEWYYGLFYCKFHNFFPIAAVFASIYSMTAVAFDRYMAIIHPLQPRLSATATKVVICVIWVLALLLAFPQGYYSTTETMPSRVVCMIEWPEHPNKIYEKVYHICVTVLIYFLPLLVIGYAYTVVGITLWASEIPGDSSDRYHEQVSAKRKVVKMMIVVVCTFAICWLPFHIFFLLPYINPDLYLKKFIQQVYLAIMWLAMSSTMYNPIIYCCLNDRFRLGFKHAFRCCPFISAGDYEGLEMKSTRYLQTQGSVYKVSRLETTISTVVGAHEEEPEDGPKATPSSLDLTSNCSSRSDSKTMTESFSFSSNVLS

Compound: COC1(C[S@@+]([O-])c2ccccc2)CCN(CCc2c[nH]c3ccc(F)cc23)CC1 [GR-159897]
- effect on sialokinin-stimulated phosphorylation of PI3K [1]: reduced
- P-PI3K/PI3K (expression relative to untreated control) ([1]; pre-treatment with NK2R antagonist then sialokinin, 20 min, individual replicates, n = 4): 0.877 and 0.977 and 0.987 and 0.967
- CD169 relative fold change [2, 8]: 0.8629 and 0.8036 and 0.6381 and 0.8197 and 0.5757
- CD 169 expression (MFI) [2, 8]: 1530 MFI and 1669 MFI and 977 MFI and 2300 MFI and 1731 MFI
- CD 169 expression (MFI) ([2]; GR-159897 inhibitor only, individual replicates): 1773 MFI and 2077 MFI and 1531 MFI and 2806 MFI and 3007 MFI
- effect on sialokinin-mediated downregulation of CD169 [2]: only partially neutralized
- effect on sialokinin-stimulated phosphorylation of Akt [3]: reduced
- P-Akt/Akt (expression relative to untreated control) ([3]; pre-treatment with NK2R antagonist then sialokinin, 20 min, individual replicates, n = 5): 0.9906 and 1.222 and 1.192 and 0.816 and 0.7836

Compound: COc1ccccc1CN[C@H]1C2CCN(CC2)[C@H]1C(c1ccccc1)c1ccccc1 [CP-96345]
- effect on Emax of sialokinin at NK1R [4]: without affecting the Emax value
- effect on sialokinin-stimulated phosphorylation of PI3K [1]: reduced
- CD 169 expression (MFI) ([2]; CP-96345 + sialokinin, individual replicates): 387 MFI and 396 MFI and 194 MFI and 919 MFI and 1966 MFI
- CD 169 expression (MFI) ([2]; CP-96345 inhibitor only, individual replicates): 586 MFI and 529 MFI and 236 MFI and 1225 MFI and 3060 MFI
- effect on sialokinin-mediated downregulation of CD169 [2]: only partially neutralized
- effect on sialokinin-stimulated phosphorylation of Akt [3]: reduced

Compound: O=c1cc(N2CCOCC2)oc2c(-c3ccccc3)cccc12 [LY-294002]
- CD 169 expression (MFI) ([2]; LY-294002 + sialokinin, individual replicates): 182 MFI and 164 MFI and 106 MFI and 91.9 MFI and 143 MFI
- CD 169 expression (MFI) ([2]; LY-294002 inhibitor only, individual replicates): 216 MFI and 280 MFI and 107 MFI and 103 MFI and 164 MFI
- effect on sialokinin-mediated downregulation of CD169 [2]: completely blocked

Compound: NTGDKFYGLM-NH2 [Sialokinin I]
- EC50 [5]: 0.288 ± 0.107 nM
- EC50 [6]: 0.052 ± 0.028 nM
- EC50 [7]: 1.29 ± 0.281 nM
